Assay results taken from a melting point compilation (Tetko et al.; mined from patent text by program, amines drawn as free bases though some values may be those of a salt).

melting point | SMILES
46 to 47.5 °C | CCCCCCCCCOc1ccc(-c2ccc(Br)cc2)c(F)c1F
102 to 104 °C | CCCN1CCN(CCCOc2ccc3nc(C#N)nc(NCC(C)(C)C)c3c2)CC1
251 to 253 °C | CCc1[nH]cc2c1-c1ccc(Cl)cc1C(c1ccccc1Cl)=NC2
105 to 107 °C | Cc1nc(-c2cc(C)c(OCCCc3cnc4ccccc4c3)c(C)c2)no1
75 to 80 °C | CC(=CCCC(C)C1CCC2(C)C3=CCC4C(C)(C)C(=O)CCC4(C)C3=CCC12C)CO (centres undefined)
147 to 148 °C | OC1CCCc2nc3ccccc3c(NCCCC(c3ccccc3)c3ccccc3)c21 (centres undefined)
157 to 158 °C | Nc1ncnn1C(=S)NCc1ccccc1
176 to 181 °C | Cc1cc(C(C)(C)C)c(OP2OP(Oc3c(C(C)(C)C)cc(C)cc3C(C)(C)C)OP(Oc3c(C(C)(C)C)cc(C)cc3C(C)(C)C)O2)c(C(C)(C)C)c1 (centres undefined)
158 to 161 °C | O=C(c1ccc(NC(=O)C(O)(C(F)F)C(F)F)cc1)c1ccccn1
165 to 166 °C | Cc1nn(-c2ccccn2)c2c1C(=O)CC(C)(C)C2S(=O)(=O)c1ccccc1 (centres undefined)
225 to 226 °C | CN1CCN(C2=Nc3cc(Cl)ccc3Nc3ccsc32)CC1
80 to 81 °C | COc1ccc(S(=O)(=O)Nc2cccnc2Nc2ccccc2C)cc1
108 to 109 °C | CCOc1nn(-c2ccc(C(F)(F)F)cn2)cc1CCCOc1nn(CC)cc1CC(=O)O
100 to 103 °C | O=C(NCc1ccccn1)c1cc(OCC(F)(F)F)ccc1OCC(F)(F)F
135 to 138 °C | CSc1ccc2sc3cc(F)ccc3c(=O)c2c1
170 to 172 °C | C[Si](C)(c1ccc(N(c2ccccc2)c2ccccc2)cc1)c1ccc(N(c2ccccc2)c2ccccc2)cc1
76 to 78.5 °C | N#CCCCCN1C(=NCCCn2ccnc2)c2cccc3cccc1c23
158 to 163 °C | O=C(Nc1ccc(-n2nc(C3CC3)cc2C2CC2)cc1)c1c(F)cccc1F
241 to 243 °C | O=C1c2ccccc2C(=O)N1CC(=O)N1c2ccc(Cl)cc2N(Cc2ccccc2)C(=O)[C@H]2CCC[C@H]21 (relative stereo)
273 to 274 °C | O=C1CS(=O)(=O)C(C(=O)Nc2ccc(Cl)cc2)Cc2cc3c(cc21)OCCO3 (centres undefined)
99.5 to 100 °C | CC(=O)N1CCc2ccc(Cl)c(Cl)c2C1
72 to 74 °C | CCOC(=O)c1ccc(OCc2ccccc2)c(OC)c1

melting point | SMILES
82 to 83 °C | Oc1cccc2c(Oc3ccccc3)cccc12
193 °C | COc1cncc(-c2cncc(OC3SCC(O)C(O)C3O)c2)c1 (centres undefined)
94 to 96 °C | CC(C)N(C)c1nccc(Oc2ccc(NC(=O)c3cc(F)cc(N4CCOCC4)c3)c3ccccc23)n1
73 to 74 °C | CCOC(=O)CCNC(=O)n1nc(Oc2c(Cl)cc(C(F)(F)F)cc2Cl)cc1C
42 to 45 °C | Cc1ccc(O)c(C(C)(C)CC(C)(C)C)c1
165 to 166 °C | CC(C)=C(C)CCC(C)C1CCC2(C)C3CCC4C(C)(C)C(O)CCC45CC35CCC12C (centres undefined)
221 to 222 °C | Oc1ccc(CCNc2ncnc3c(F)ccc(F)c23)cc1
122 to 123 °C | CCN(Cc1cccnc1)C(=S)NC
235 to 240 °C | CCCCNc1cc(C(=O)O)cc(S(N)(=O)=O)c1Oc1cccc(NC(C)=O)c1
252 to 256 °C | O=[N+]([O-])c1cc(Br)cc2c1[nH]c1ccc(Br)cc12
166 to 168 °C | CC(C)C(NC(=O)OC(C)(C)C)C(=O)OC(O)C(=O)C1C(C)CC2C3CC(F)C4=CC(=O)C=CC4(C)C3C(O)CC21C (centres undefined)
128 to 129 °C | COc1nc(C)cnc1NS(=O)(=O)c1cccnc1-c1ccc(CC(C)C)cc1
115 to 117 °C | CCN(CC)CC1(C(F)(F)F)c2cc(Cl)ccc2Nc2ncccc21 (centres undefined)
204 °C | Cc1cccc(NC(=O)NCC(=O)N(CC(=O)OC(C)(C)C)c2ccccc2Oc2ccccc2)c1
191 to 192 °C | CCn1cnc2c(Nc3ccc(C(F)(F)F)cc3)nc(NCCO)nc21
106 °C | O=C(CCCCCC(c1cc(F)ccc1F)S(=O)(=O)c1ccc(Cl)cc1)N1CCCC1 (centres undefined)
93 to 94 °C | COc1cc(Cl)cnc1N
140 to 141 °C | O=C(O)c1ccsc1COc1ccc(CCCCO)cc1
210 to 212 °C | O=C(O)c1cc(Br)c(O)cc1O
112 to 114 °C | CCOC(=O)N1CCC(=C2c3cc(F)ccc3CCc3cccnc32)CC1
115 to 116 °C | COc1ccc(C)cc1N1CCN(C(=O)Nc2cc3ccccc3nc2OC)CC1
124 to 129 °C | CCOC(=O)C=Cc1cnc(N(Cc2ccc(OC)c(OC)c2)C(=O)OC(C)(C)C)n2nc(-c3ccco3)nc12

melting point | SMILES
156 °C | CCCCC(=O)Cc1ccc(C(=O)Nc2ccc3cc(CN4CCCC4)cnc3c2C)cc1
136 to 137 °C | O=C(O)CCc1cnoc1-c1ccc(F)c(Br)c1
128 to 131 °C | CC(=O)NC1(c2ccc(C(C)=O)cc2)CC1
169 to 171 °C | CCOC(=O)c1cn(C2COC2)c2c(F)c(F)cc(F)c2c1=O
184 to 186 °C | COc1ccc2c(c1OC)CCC(NC(C)=O)C2O (centres undefined)
201 to 203 °C | COC(=O)NC1Cc2ccc([N+](=O)[O-])cc2C1O (centres undefined)
204 to 206 °C | COc1ccc2c(c1)C(Oc1ccccc1)=C(C(=O)O)S2=O (centres undefined)
134 °C | C#CCS(=O)c1c(O)cc(C)oc1=O (centres undefined)
146 to 148 °C | CC(C)CC(COCC(N)=O)NC(=O)C1CCCN1C(=O)OCc1ccccc1 (centres undefined)
179 to 181 °C | Fc1cccc(CNC(=S)N2CCc3c([nH]c4ccccc34)C2c2ccc3c(c2)OCO3)c1 (centres undefined)
73 to 74 °C | COC(=O)CCC(=NOCc1ccc(OCCc2nc(-c3ccccc3)oc2C)cc1)c1ccccc1
152 to 153 °C | O=C1c2ccccc2C(=O)N1c1cc(CCl)ccn1
160 to 161 °C | Cc1c(OCC(F)(F)F)ccnc1CSc1nc2cc(N3CCCCC3)c(F)cc2[nH]1
194 to 198 °C | O=Cc1ccc2c(c1)Sc1cc(C=O)ccc1N2c1ccccc1
200 to 203 °C | CCCCNC(=O)NS(=O)(=O)c1cccc2c1OC(C)(C)C2
184 to 186 °C | CC(=O)NC(=O)C(SCc1ccccc1)C(c1ccccc1)(c1ccccc1)c1ccccc1 (centres undefined)
150 to 151 °C | CC(C)Oc1cc(-c2cn(C)c(C(F)(F)F)cc2=O)c(F)cc1Cl
226 to 229 °C | O=C(CCC(=O)Sc1ccc(O)cc1)Sc1ccc(O)cc1
60 to 62 °C | CCCC(=O)C(=CNc1ccccc1F)C(=O)OCC
59 to 61 °C | Nc1cc(N=c2sc(=S)n3n2CCCC3)c(F)cc1Cl
121 to 123 °C | CCNc1cnc(-c2ccccc2)c(-c2ccccc2)n1

SMILES | melting point
CCCC(=O)c1cc2c(cc1C)NC(=O)C2(O)C(=O)OCC (centres undefined) | 180 to 181 °C
CC1=Cc2ccc(Cl)cc2C(c2ccc(N)c(C)c2)=NN1C(=O)NC1CC1 | 233 to 236 °C
COCOc1ccc(C=C[N+](=O)[O-])cc1OCc1ccccc1 | 75 to 76 °C
NCC(COC(C(F)(F)F)(C(F)(F)F)C(F)(F)F)(COC(C(F)(F)F)(C(F)(F)F)C(F)(F)F)C(=O)O | 182 to 184 °C
